Source: patent US11974571B1, “3-5-dinitro-N-(pyrimidin-2-ylcarbamothioyl)benzamide as an eco-friendly insecticidal agent against Spodoptera littoralis (boisd.)” (KING FAISAL UNIVERSITY, priority 2023, dated 2024)
Values after ≈ are worked out from the molar mass of the structure shown. Where two headings read alike, the source gives them in different places.

Tested on: Spodoptera littoralis
Test: Insecticidal bioassay screening (castor leaf dip), laboratory strain of cotton leafworm
Assay type: in vivo
Conditions: for Toxicity index %: 72 hrs, Diflubenzuron's LC50 / the compound's LC50 × 100; for LC50: Spodoptera littoralis, foliar, 72 h
Experimental: Five concentrations (200, 100, 50, 25, 12.5 ppm) were designed for this synthetic compound and the reference Diflubenzuron compound as the dynamic ingredients based on mg/L via diluting the commercial formulation.
[…] Larvae of the second and fourth instars of each checked strain are prepared with treated leaves in gauze-covered glass containers for 72 hrs. An untreated control is made in which leaves are dipped in triton x-100 and distilled water only. Then the preserved leaves were removed & fresh, untreated leaves were provided for 72 hours. Three replicates (10 larvae each) were checked for each concentration. Daily inspection was carried out for all treatments and mortality percentages were recorded 3 days (72 hours) after treatment. The average mortality percentage was corrected employing Abbott's formula. The corrected mortality rate for each of the previously synthesized compounds is statistically calculated according to Finney (1970). Through this rate, the corresponding concentration test lines (LDP lines) are assessed.

[1] = 2nd instar larvae, laboratory strain, after 72 hrs of treatment
[2] = 4th instar larvae, laboratory strain, after 72 hrs of treatment
[3] = read-out: LC50 (mg/L) at 95%, 2nd instar larvae, laboratory strain, after 72 hrs of treatment
[4] = read-out: LC50 (mg/L) at 95%, 4th instar larvae, laboratory strain, after 72 hrs of treatment

| SMILES | Toxicity index % (2nd instar larvae) [%] | LC50 (mg/L) at 95% [1] | LC90 (mg/L) at 95% [1] [mg/L] | Toxicity index % (4th instar larvae) [%] | LC90 (mg/L) at 95% [2] [mg/L] | LC50 [3] [mg/L] | LC50 [4] [mg/L] |
| --- | --- | --- | --- | --- | --- | --- | --- |
| O=C(NC(=S)Nc1ncccn1)c1cc([N+](=O)[O-])cc([N+](=O)[O-])c1 [Compound 1, 3,5-dinitro-N-(pyrimidin-2-ylcarbamothioyl)benzamide] | 23.7 | about 190.0 mg/L | 1713.2 (≈ 4920 µM) | 33.4 | 4020.4 (≈ 11500 µM) | 190 (≈ 546 µM) | ~430 (≈ 1240 µM) |
| O=C(NC(=O)c1c(F)cccc1F)Nc1ccc(Cl)cc1 [Diflubenzuron, reference compound] | 100 |  | 520.0 (≈ 1670 µM) | 100 | 1540.5 (≈ 4960 µM) | 45.2 (≈ 145 µM) | 144 (≈ 464 µM) |
